Experimental data: ChEMBL document CHEMBL1201862, “PubChem BioAssay data set” (2004)
Active and inactive are the calls of the source.

Tests used:
[1] = biological target: Glyceraldehyde-3-phosphate dehydrogenase (Homo sapiens, UniProt P04406)
[2] = biological target: T1, Tyrosine-protein phosphatase non-receptor type 7 (Homo sapiens, UniProt P35236); assay type: functional
T1 sequence (P35236 whole entry): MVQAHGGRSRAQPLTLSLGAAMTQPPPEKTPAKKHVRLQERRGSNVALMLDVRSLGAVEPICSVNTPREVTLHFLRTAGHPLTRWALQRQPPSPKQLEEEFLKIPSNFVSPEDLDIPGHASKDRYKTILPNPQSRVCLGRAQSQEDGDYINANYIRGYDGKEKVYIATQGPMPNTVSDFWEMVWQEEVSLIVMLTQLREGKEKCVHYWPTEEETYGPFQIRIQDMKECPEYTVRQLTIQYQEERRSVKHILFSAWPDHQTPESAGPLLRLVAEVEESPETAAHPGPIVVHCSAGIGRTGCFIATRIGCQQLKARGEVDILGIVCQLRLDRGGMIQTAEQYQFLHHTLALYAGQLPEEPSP

[3] = biological target: T2, Dual specificity protein phosphatase 6 (Rattus norvegicus, UniProt Q64346); assay type: functional
T2 sequence (Q64346 whole entry): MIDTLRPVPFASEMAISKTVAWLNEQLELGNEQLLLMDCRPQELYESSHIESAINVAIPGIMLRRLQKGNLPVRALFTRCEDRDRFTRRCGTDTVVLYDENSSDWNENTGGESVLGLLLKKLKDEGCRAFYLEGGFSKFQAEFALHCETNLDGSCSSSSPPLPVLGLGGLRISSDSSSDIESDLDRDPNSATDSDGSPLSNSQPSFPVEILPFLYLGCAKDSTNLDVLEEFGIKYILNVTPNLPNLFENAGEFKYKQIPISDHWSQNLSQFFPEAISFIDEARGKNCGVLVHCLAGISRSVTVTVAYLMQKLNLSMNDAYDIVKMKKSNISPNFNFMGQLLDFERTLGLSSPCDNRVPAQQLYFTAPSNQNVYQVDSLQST

[4] = biological target: T2, Dual specificity protein phosphatase 6
[5] = biological target: G-protein coupled receptor 55 (Homo sapiens, UniProt Q9Y2T6); experiment: GPR55 agonists via beta-arrestin recruitment, primary screen, imaging, U2OS cells, beta-arrestin-GFP redistribution (AID 1961); assay type: functional
[6] = biological target: T3, NACHT, LRR and PYD domains-containing protein 1 (Homo sapiens, UniProt Q9C000); experiment: NALP1 inhibitors in yeast, dose response, luminescent (AID 488860); assay type: functional
T3 sequence (Q9C000 whole entry): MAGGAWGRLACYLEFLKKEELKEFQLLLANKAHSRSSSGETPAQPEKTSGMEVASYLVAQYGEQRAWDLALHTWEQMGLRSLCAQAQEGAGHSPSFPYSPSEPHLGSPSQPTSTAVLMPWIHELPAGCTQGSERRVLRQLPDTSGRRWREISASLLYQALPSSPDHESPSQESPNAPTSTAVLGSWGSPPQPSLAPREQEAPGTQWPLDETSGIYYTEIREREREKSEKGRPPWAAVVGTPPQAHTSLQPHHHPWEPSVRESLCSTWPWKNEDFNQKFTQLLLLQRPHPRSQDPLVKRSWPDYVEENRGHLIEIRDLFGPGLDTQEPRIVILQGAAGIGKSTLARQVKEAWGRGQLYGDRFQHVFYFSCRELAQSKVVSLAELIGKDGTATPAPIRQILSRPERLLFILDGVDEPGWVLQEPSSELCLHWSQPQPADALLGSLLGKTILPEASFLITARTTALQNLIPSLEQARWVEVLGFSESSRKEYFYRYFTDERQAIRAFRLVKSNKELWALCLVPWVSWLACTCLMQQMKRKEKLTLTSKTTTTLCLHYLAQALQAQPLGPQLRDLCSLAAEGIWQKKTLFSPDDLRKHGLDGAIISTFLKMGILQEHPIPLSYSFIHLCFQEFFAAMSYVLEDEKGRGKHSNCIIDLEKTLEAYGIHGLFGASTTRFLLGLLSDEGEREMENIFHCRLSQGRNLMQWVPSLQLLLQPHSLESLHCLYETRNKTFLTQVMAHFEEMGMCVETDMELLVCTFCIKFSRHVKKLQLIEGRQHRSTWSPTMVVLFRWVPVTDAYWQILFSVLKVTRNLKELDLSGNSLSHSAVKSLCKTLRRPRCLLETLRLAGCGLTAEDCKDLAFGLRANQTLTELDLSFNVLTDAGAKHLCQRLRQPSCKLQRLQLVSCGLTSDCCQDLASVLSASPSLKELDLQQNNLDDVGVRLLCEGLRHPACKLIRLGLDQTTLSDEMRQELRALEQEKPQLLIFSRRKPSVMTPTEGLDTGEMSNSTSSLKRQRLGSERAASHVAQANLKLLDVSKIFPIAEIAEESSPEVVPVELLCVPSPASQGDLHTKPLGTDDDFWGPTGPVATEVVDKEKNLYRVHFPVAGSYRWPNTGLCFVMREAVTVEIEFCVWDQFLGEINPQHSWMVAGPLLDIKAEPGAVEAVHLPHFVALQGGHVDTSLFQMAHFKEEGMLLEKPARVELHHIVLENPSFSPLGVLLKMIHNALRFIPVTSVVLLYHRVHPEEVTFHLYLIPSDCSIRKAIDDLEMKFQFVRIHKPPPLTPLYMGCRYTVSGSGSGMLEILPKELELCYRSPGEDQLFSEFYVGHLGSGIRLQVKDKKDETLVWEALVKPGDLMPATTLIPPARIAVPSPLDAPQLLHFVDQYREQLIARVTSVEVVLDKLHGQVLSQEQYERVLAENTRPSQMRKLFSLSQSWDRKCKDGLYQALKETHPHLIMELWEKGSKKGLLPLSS

Saccharomyces cerevisiae = experiment: NALP1 inhibitor project selectivity study, Caspase-1/ASC signal blockade IC50 in S. cerevisiae (AID 488863); assay type: functional, organism-based
[7] = A cytotoxicity screen of small molecule inhibitors of the PhoP region in Salmonella typhi identified in the primary screen. [Related pubchem assays: 1850, 1864, 1985 ]; assay type: functional
[8] = biological target: T4, Replicative DNA helicase DnaB (Mycobacterium tuberculosis, UniProt P9WMR3); experiment: DnaB intein splicing inhibitors, dose response, biochemical, cell-free fluorescence (AID 449749); assay type: functional
T4 sequence (P9WMR3 whole entry): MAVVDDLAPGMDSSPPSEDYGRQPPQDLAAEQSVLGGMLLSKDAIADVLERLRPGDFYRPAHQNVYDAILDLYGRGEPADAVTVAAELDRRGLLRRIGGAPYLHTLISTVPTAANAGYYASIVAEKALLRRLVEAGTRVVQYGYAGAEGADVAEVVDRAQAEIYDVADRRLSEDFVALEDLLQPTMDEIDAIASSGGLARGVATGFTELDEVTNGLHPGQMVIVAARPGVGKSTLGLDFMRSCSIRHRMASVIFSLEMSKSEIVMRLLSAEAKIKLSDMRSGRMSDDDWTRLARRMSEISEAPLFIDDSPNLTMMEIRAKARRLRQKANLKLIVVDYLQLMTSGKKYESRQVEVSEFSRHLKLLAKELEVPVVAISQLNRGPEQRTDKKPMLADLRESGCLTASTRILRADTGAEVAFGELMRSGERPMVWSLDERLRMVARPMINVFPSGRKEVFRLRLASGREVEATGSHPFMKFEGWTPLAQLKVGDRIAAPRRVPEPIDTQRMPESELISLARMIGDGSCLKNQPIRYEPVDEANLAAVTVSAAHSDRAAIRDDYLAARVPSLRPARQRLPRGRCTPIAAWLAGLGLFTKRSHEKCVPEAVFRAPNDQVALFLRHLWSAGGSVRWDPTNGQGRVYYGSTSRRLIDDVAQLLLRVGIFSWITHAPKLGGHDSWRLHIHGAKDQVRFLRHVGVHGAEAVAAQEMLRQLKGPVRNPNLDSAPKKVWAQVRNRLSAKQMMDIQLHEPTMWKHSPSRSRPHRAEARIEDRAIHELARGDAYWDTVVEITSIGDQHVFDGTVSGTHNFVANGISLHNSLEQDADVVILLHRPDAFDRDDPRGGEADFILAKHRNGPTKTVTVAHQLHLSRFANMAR

Protein RecA = biological target: T5, Protein RecA (Mycobacterium tuberculosis, UniProt P9WHJ3); experiment: Fluorescence Cell-Free Homogeneous Dose Retest to Identify Inhibitors of RecA-Intein Splicing Activity. [Related pubchem assays (depositor defined):AID2097, AID2223, AID489010, AID492950]; assay type: functional
T5 sequence (P9WHJ3 whole entry): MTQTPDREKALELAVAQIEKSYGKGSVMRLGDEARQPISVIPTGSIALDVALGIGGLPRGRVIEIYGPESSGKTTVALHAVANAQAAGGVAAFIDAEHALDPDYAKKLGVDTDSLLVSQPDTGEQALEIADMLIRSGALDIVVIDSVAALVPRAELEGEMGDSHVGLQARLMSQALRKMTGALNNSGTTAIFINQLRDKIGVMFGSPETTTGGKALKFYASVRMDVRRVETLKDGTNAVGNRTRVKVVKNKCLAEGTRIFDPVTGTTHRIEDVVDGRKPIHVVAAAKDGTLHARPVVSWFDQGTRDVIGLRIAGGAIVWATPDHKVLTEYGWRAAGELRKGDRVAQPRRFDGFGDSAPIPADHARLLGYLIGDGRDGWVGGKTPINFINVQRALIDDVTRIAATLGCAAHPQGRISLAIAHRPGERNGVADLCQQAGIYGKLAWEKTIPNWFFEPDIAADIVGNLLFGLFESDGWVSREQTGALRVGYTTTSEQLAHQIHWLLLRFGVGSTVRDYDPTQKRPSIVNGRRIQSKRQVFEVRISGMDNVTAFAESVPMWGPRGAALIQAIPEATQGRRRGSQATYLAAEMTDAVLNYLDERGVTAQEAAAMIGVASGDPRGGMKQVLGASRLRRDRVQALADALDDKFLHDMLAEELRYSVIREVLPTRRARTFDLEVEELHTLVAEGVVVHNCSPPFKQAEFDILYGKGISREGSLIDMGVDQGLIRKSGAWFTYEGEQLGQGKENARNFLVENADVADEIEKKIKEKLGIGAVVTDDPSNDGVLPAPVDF

[9] = cytotoxicity toward NIH3T3 fibroblasts, dose response, counter-screen, cell-based, ATP luminescence, mouse fibroblasts (AID 2010); assay type: functional;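 note: cells exposed to compound for about 90 hours before reading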
[10] = inhibitors of intracellular T. cruzi replication, confirmation, NIH3T3 host cells, beta-gal luminescence (AID 2044); assay type: functional, cell-based;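 note: intracellular parasites grown in NIH/3T3 mouse fibroblasts as host cells; luminescent beta-galactosidase reporter signal from transgenic T. cruzi replicating inside host cells; inhibitors lower the luminescence signal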
[11] = test system: Streptococcus sp. 'group A'; experiment: growth inhibition of control SK(-) GAS strain, dose response, counter-screen for streptokinase expression inhibitor project, luminescence, kanamycin, BacTiterGlo, confirmation (AID 1900); assay type: functional, organism-based
Streptokinase A = biological target: T6, Streptokinase A (Streptococcus pyogenes serotype M1, UniProt P10520); experiment: S. pyogenes streptokinase expression inhibitors, potency, dose response, plasminogen activation absorbance, OD405 (AID 1914); assay type: functional, Streptococcus pyogenes M1 GAS;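 note: secreted streptokinase activity via plasminogen activation per viability signal from cell pellet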
T6 sequence (P10520 whole entry): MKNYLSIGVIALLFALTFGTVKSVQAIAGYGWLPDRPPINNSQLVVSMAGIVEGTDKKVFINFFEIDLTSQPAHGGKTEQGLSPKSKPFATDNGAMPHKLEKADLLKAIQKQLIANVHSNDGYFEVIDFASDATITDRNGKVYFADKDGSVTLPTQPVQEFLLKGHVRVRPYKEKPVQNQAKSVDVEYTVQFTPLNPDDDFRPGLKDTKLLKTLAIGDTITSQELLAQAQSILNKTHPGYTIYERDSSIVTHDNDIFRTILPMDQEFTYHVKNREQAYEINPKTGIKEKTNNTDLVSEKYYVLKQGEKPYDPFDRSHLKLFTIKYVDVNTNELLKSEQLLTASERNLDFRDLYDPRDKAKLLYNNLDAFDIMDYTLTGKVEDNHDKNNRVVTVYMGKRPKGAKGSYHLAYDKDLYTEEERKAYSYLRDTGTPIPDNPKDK

Streptococcus = experiment: Group A Streptococcus viability loss, dose response, counter-screen for streptokinase expression inhibitor project, luminescence, BacTiterGlo (AID 1915); assay type: functional, organism-based;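 note: potency for reduction of bacterial viability or growth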
X-box-binding protein 1 = biological target: T7, X-box-binding protein 1 (Homo sapiens, UniProt P17861); assay type: functional, Cricetulus griseus;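 note: confirmatory dose-response counter-screen serving a CHOP assay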
T7 sequence (P17861 whole entry): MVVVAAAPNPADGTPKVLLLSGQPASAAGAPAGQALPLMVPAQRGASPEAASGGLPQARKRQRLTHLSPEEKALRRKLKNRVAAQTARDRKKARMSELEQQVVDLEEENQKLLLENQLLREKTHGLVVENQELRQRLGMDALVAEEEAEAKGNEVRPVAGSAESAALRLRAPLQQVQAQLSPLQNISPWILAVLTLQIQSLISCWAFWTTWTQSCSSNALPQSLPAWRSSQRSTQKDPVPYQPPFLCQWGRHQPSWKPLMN

Sequence of G-protein coupled receptor 55 (Q9Y2T6 whole entry, the tested form may be a part): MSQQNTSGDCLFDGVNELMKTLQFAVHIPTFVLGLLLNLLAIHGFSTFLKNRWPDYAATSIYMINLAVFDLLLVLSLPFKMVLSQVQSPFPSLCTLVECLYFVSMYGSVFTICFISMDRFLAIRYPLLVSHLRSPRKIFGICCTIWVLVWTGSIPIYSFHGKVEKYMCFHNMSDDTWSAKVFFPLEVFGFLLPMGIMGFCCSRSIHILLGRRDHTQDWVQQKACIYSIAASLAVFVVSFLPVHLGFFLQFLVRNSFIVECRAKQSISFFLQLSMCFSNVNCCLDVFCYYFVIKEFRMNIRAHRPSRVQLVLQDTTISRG
Sequence of Glyceraldehyde-3-phosphate dehydrogenase (P04406 whole entry): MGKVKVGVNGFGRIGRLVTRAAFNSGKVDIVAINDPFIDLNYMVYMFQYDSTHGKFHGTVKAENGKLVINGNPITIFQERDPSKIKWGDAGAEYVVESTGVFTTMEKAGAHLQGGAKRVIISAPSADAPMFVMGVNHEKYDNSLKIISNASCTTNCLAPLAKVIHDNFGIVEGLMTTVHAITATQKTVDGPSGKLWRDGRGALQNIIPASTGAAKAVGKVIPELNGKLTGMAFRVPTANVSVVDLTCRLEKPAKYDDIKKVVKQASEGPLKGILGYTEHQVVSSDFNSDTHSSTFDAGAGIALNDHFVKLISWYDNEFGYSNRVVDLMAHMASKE

Cc1cc(NC(=O)/C=C/c2cccs2)no1
IC50 [1]: 62.6 µM (active) | IC50 [2]: > 100 µM (not active) | IC50 [3]: > 100 µM (inactive) | IC50 [4]: > 100 µM (inactive)

O=C(c1ccc2c(c1)N(Cc1ccccc1F)C(=O)c1ccccc1S2(=O)=O)N1CCCC1
EC50 [5]: > 32 µM (inactive)

CCOc1ccccc1N1CCN(C(=O)CCCc2nc3ccccc3s2)CC1
IC50 [6]: 36.3 µM (active) | IC50 (Saccharomyces cerevisiae): > 100 µM (inactive)

Cc1cc(N=Nc2ccccc2)c(NCC(O)C(O)C(O)CO)cc1C (centres undefined)
EC50 [7]: > 50 µM (active)

COc1ccc(C=C(c2nc3ccccc3s2)c2nc3ccccc3s2)cc1O
AC50 [8]: > 380 µM (inactive) | EC50 (Protein RecA): 7.08 µM (active) | EC50 [5]: 3.05 µM (active)

O=C(CSc1nnc(-c2cccnc2)n1Cc1ccco1)c1ccc2ccccc2c1
EC50 [7]: > 50 µM (active)

Cc1ccc(/C=C2\SC(=S)N(c3cccnc3)C2=O)o1
EC50 [9]: > 60 µM (not active) | EC50 [10]: 2.36 µM (active) | EC50 [7]: > 50 µM (active)

C=CCn1c(COc2ccccc2)nnc1SC(C)C(=O)N/N=C/c1cc(Cl)ccc1O (centres undefined)
EC50 [11]: 2.77 µM (active) | EC50 (Streptokinase A): > 150 µM (not active) | EC50 (Streptococcus): 8.01 µM (active) | Absolute IC50 (XBP1) (X-box-binding protein 1): 10 µM
